Data from article PMC3938723, “Learning from Host-Defense Peptides: Cationic, Amphipathic Peptoids with Potent Anticancer Activity” (PLoS ONE, 2014).
Non-standard residues stand in square brackets, D forms with d. Residues, ends and D or L forms follow the SMILES beside them. Nspe = C[C@H](NCC(=O)O)c1ccccc1; Nlys = NCCCCNCC(=O)O

Test system: Primary dermal fibroblast
Test: MTS cell viability assay, primary dermal fibroblasts
Type: cell-based
Conditions: 72 h
Procedure: MCF-7, MCF-7/TxT50 and OVCAR-3 (available in ATCC) were kindly provided by Professor Branimir Sikic's lab at Stanford University, and were cultured in McCoy's 5A media (GIBCO) with 10% FBS and antibiotics. Primary dermal fibroblasts were gifts from Lifeline Cell Technology and were cultured <6 passages according to the protocol Lifeline provides. All the cells were cultured in cell incubators (Thermo Scientific) at 37°C with 5% CO2.
This assay is a colorimetric method for determining the number of viable cells in proliferation. Aliquots of 100 µl media containing 1×10^4 cells were distributed into each well of a 96-well plate (BD Falcon). The following day, when cell density reaches about ∼40% confluency, the cell media were removed and replaced with serial dilutions of peptoid stocks in culturing media. For peptoid dilutions, peptoid stocks were initially diluted in media at 100 µM and then diluted by half in series using a multichannel pipette, and maintained in 100 µl media for each concentration with triple repeats. After peptoid solutions were transferred onto cells in 96-well plates, cells were incubated at 37°C for certain time periods. Then 20 µl of the CellTiter 96 Aqueous Non-Radioactive cell proliferation assay (Promega) reagent which contains a tetrazolium compound, [3-(4,5-dimethylthiazol-2-yl)-5-(3-carboxymethoxyphenyl)-2-(4-sulfophenyl)-2H-tetrazolium, inner salt; MTS(a)], was added to each well and cells were further incubated for 2 h to metabolize. The absorbance of formazan products were measured at 490 nm in a microplate reader (Molecular Devices). Percentage of cell viability = (A -A testblank)/(A control -A blank)×100, where A is the absorbance of the test well and A control the average absorbance of wells with cells not treated with peptoids. A testblank (media, MTS, and diluted peptoids) and A blank (media and MTS) were background absorbances measured in the absence of cells.
The activity and selectivity of these peptoids against cancer cells were evaluated in vitro. Their cytotoxicity was tested in three cancer cell lines, MCF-7 (human breast cancer), LNCaP (human prostate cancer), and OVCAR-3 (human ovarian cancer). To estimate the selectivity of these peptoids in vitro, hemolytic activities of some peptoids were cited from previously published work (Table 2 **column), and the MRC-5 cell line (human fibroblasts derived from fetal lung tissues) and primary dermal fibroblasts were also tested as normal cell controls. Briefly, cells were treated with peptoids diluted in culturing media for certain time periods, and then cell viability was measured via MTS assays.

C[C@@H](c1ccccc1)N(CC(N)=O)C(=O)CN(C(=O)CN(CCCCN)C(=O)CN(C(=O)CN(C(=O)CN(CCCCN)C(=O)CN(C(=O)CN(C(=O)CN(CCCCN)C(=O)CN(C(=O)CN(C(=O)CNCCCCN)[C@@H](C)c1ccccc1)[C@@H](C)c1ccccc1)[C@@H](C)c1ccccc1)[C@@H](C)c1ccccc1)[C@@H](C)c1ccccc1)[C@@H](C)c1ccccc1)[C@@H](C)c1ccccc1 [Peptoid 1, H-(NLys-Nspe-Nspe)4-NH2] (H-[Nlys][Nspe][Nspe][Nlys][Nspe][Nspe][Nlys][Nspe][Nspe][Nlys][Nspe][Nspe]-NH2)
LC50 Primary dermal fibroblast: 8 µM
